Assay results: patent US9018168B2, “Therapeutic method for treating congestive heart failure” (Madeleine Pharmaceuticals Pty Ltd, priority 2010, dated 2015)
Read-outs that look alike come from different tables or passages of the source. No end group written: not given here.

Columns and labels:
[1] = cited from earlier work
[2] = tested on: patients with chronic, but stable, New York Heart Association (NYHA) Class III CHF; conditions: cited from earlier work
[3] = Example 2: estimation of baseline and Cmax for VSDL following infusion (blood samples, mass spectroscopy); assay type: in vivo, human; conditions: for half-life: read-out: estimated half-life (t1/2)
Description: Following the surprising finding that beneficial effects for the treatment of chronic CHF can be achieved with doses that are much less than that which had been proposed, a study was undertaken to estimate the baseline levels of VSDL and Cmax (ie the peak VSDL concentration that is achieved) following infusion.
The baseline VSDL concentration (ie endogenous level) was estimated from an identical sample taken prior to infusion (ie “predose”).

[4] = tested on: subjects with chronic CHF or ADCHF (NYHA class III - NYHA class IV); test: Example 1: treatment of ADCHF with iv administration of vessel dilator; assay type: in vivo, human
Description: This example describes a study to examine whether VSDL administration to ADCHF patients will be safe and induce improvements in haemodynamic parameters, as well as renal, natriuretic and diuretic parameters, whilst regulating plasma volume and BP within clinically acceptable ranges and without seriously adverse side effects.
VSDL in the form of a white lyophilised powder (synthesised using standard protein synthesis method by Auspep Pty Ltd, Parkville, VIC, Australia), stored in an ultra low freezer (−80° C.), was reconstituted in a vial with 10 ml of 0.9% saline (preservative free) and aseptically transferred into a 20 ml syringe (that connects to a patient cannula) before use.
Initially, an iv dose of 12.5 ng/kg/min was infused into test subjects for 60 minutes with a syringe driver (Alaris Asena GS syringe driver; C are Fusion Corporation, San Diego, Calif., United States of America). This “safety dose” was chosen merely to trial the subjects for any adverse effects. Subsequently, a dose of 25 ng/kg/min (as infused for 60 minutes) was trialled. Additionally, a trial will be conducted with a dose of 50 ng/kg/min (for 60 minutes).
Test adult subjects, both male and female, showing either acute exacerbations of chronic CHF or ADCHF (ie in individuals who had not previously shown heart failure), were recruited for the study. The following inclusion and exclusion criteria were applied:
In order to be eligible, a subject must have chronic CHF or ADCHF (NYHA class III—NYHA class IV) defined as: • 1. Showing dyspnoea at rest or dyspnoea with minimal activity (ie difficulty breathing at rest while sitting, or difficulty breathing while lying flat or with one pillow, or difficulty breathing with minimal activity such as talking, eating); AND • 2. Showing at least one of the following signs: • Tachypnoea with respiratory rate >20 breaths per minute, OR • Pulmonary congestion/oedema with rales or crackles/crepitations at least a third above lung bases; AND • 3. At least one of the following objective measures: • Showing, by chest X-ray, pulmonary oedema/congestions OR • Circulating B-type natriuretic peptide (BNP) concentration of ≧400 pg/ml or circulating NT-proBNP concentration of ≧1000 pg/ml at presentation, OR • PCWP >20 mmHg OR • Showing systolic dysfunction within the last 12 months (EF<50%) as determined by TTE, nuclear testing, cardiac MRI or ventricular angiography); and be: • 4. Male and/or female, 18 years or older; and • 5. If a woman of child bearing potential, testing negative to 13-hCG. Exclusion Criteria: • 1. Evidence in the ED for Myocardial Infarction (MI) or high risk acute coronary syndrome within past 6 weeks, as determined by creatinine kinase (CK)/creatinine kinase muscle-brain isoenzyme (CK-MB) ≧2 times upper limit of normal or elevation of Troponin T at baseline >0.1 or as determined by Trans-Thoracic […] (TTE); • 2. Hypotension (SBP <90 mmHg), cardiogenic shock, volume depletion; • 3. Persistent, uncontrolled hypertension (SBP >180 mm Hg); • 4. Subjects with the presence of any CMR contra-indication (including PPM, cerebral aneurysm clips or non-MM approved metallic implant) are excluded from any MRI study component only; • 5. Congenital heart defects (including Ventricular Septal Defect, Atrial Septal Defect, Patent Ductus Arteriosus, Tetralogy of Fallot, and Tricuspid Atresia); • 6. Cardiac surgery within past 4 weeks; • 7. Diastolic heart failure (preserved left ventricular function—determined by known history, ie E:E prime ratio>15); • 8. Severe valvular heart disease: Aortic Stenosis <1.0 cm^2, any Idiopathic hypertrophic subaortic stenosis or Hypertrophic Obstructive Cardiomyopathy, acute Aortic Regurgitation grade 3 or 4 and Mitral Regurgitation grade 3 or 4; • 9. History of cerebrovascular accident (within past 4 weeks) as determined by MM or Computerised Tomography (CT) Scan; • 10. […]

[5] = Expected increase in total circulating VSDL at originally selected doses; assay type: in vivo, human
Protocol: Since it was thought that subjects suffering significant CHF are unable to produce adequate endogenous amounts of natriuretic peptides to compensate for congestion, the present applicant had selected doses of exogenous VSDL infusion of 50 ng/kg/min, 100 ng/kg/min and 200 ng/kg/min for 60 minutes to ascertain the approximate amounts of exogenous VSDL required by late NHYA class III—NYHA class IV patients to reinstate homeostasis. Such doses were expected to result in an approximately 2-fold, 4-fold and 8-fold increase in total circulating VSDL, respectively. Further, the present applicant had particularly proposed an exogenous dose of VSDL at <100 ng/kg/min (for 60 mins) for the treatment of chronic CHF or ADCHF as a safe and effective dosage, since it has been identified that the release rate from the heart of VSDL with physiological stimuli is about 138 ng/kg body weight per minute^16 and similar dosages have been previously observed to cause a marked natriuresis and diuresis in healthy humans^17, 18 and, also, improved haemodynamic and renal parameters in persons with stable NYHA class III chronic CHF^10. The molar equivalent of the 100 ng/kg body weight dose (for 60 mins) is 26 pmol/kg body weight (for 60 mins). […] In particular, at 12.5 ng/kg/min (for 60 mins) and 25 ng/kg/min (for 60 mins). […]

[6] = 25 ng/kg/min iv for 60 mins, 24 hrs post-infusion
[7] = 25 ng/kg/min iv for 60 mins, Baseline
[8] = Subject #2, 12.5 ng/kg/min iv for 60 mins
[9] = Subject #3, 12.5 ng/kg/min iv for 60 mins
[10] = one subject, 25 ng/kg/min iv for 60 mins

B-type natriuretic peptide [BNP, reference compound]
biological t1/2 ([1]; in vivo): < ½
circulatory t1/2 ([1]; in vivo): ~3.1 min

EVVPPQVLSEPNEEAGAALSPLPEVPPWTGEVSPAQR [VSDL]
biological t1/2 ([1]; previously reported): > 6 hours
circulatory t1/2 ([1]; previously reported): 120 min
symptomatic side effects [2]: without any symptomatic side effects
Corrected Concentration ([3]; 0.5 hrs following infusion): 4.376 ng/mL
Corrected Concentration ([3]; 1 hrs following infusion): 4.376 ng/mL
Corrected Concentration ([3]; 1.5 hrs following infusion): 1.176 ng/mL
Corrected Concentration ([3]; 2 hrs following infusion): 0.556 ng/mL
Corrected Concentration ([3]; 3 hrs following infusion): 0.136 ng/mL
Corrected Concentration ([3]; 4 hrs following infusion): 0.061 ng/mL
Corrected Concentration ([3]; 5 hrs following infusion): 0.022 ng/mL
Corrected Concentration ([3]; 6 hrs following infusion): 0.005 ng/mL
Corrected Concentration ([3]; 12 hrs following infusion): 0.018 ng/mL
Corrected Concentration ([3]; Predose): 0.024 ng/mL
half-life ([3]; human, blood, intravenous, terminal elimination rate using the LOQ of 0.2 ng/ml): 20 min
half-life ([3]; human, blood, intravenous, using the point just below the LOQ, excluding and including the Cmax values): 25 to 30 min
Tmax ([3]; human, blood, intravenous, CHF patient (NYHA class III), following infusion): 30 min
level at 0.5 h ([3]; human, blood, iv, 0.5 hrs following infusion, read-out: Concentration): 4.4 ng/mL
level at 1 h ([3]; human, blood, iv, 1 hrs following infusion, read-out: Concentration): 4.4 ng/mL
level at 1.5 h ([3]; human, blood, iv, 1.5 hrs following infusion, read-out: Concentration): 1.2 ng/mL
level at 2 h ([3]; human, blood, iv, 2 hrs following infusion, read-out: Concentration): 0.58 ng/mL
level at 3 h ([3]; human, blood, iv, 3 hrs following infusion, read-out: Concentration): 0.16 ng/mL
level at 4 h ([3]; human, blood, iv, 4 hrs following infusion, read-out: Concentration): 0.085 ng/mL
level at 5 h ([3]; human, blood, iv, 5 hrs following infusion, read-out: Concentration): 0.046 ng/mL
level at 6 h ([3]; human, blood, iv, 6 hrs following infusion, read-out: Concentration): 0.029 ng/mL
level at 12 h ([3]; human, blood, iv, 12 hrs following infusion, read-out: Concentration): 0.042 ng/mL
Cmax ([3]; human, intravenous, CHF patient (NYHA class III), blood, following infusion, baseline-corrected): 4.38 ng/mL
elimination of VSDL from the blood stream ([3]; measured concentration profile (FIG. 3)): does not clearly follow first order kinetics
baseline (endogenous) VSDL concentration ([3]; predose blood sample, CHF patient (NYHA class III)): 0.024 ng/mL
safety risks seen by reviewers ([4]; 12.5 ng/kg/min iv for 60 mins, three subjects): no safety risks
CK [4, 6]: 156 U/L
CK-MB [4, 6]: 1.3 µg/L
Troponin T [4, 6]: <0.02 µg/L
CK [4, 7]: 188 U/L
CK-MB [4, 7]: 2.0 µg/L
Troponin T [4, 7]: <0.02 µg/L
clinical state during the 24 hours following the infusion [4, 8]: stable during the 24 hours
side-effects [4, 8]: global dyskinesis and no side-
tolerability of infusion [4, 8]: infusion was well tolerated by
clinical state during and within 24 hours following the infusion [4, 9]: clinically stable during this
tolerability of infusion [4, 9]: subject tolerated the infusion
safety risks seen by reviewers [4, 10]: no safety risks
side effects [4, 10]: no side effects
tolerability of infusion [4, 10]: well tolerated
expected increase in total circulating VSDL ([5]; 100 ng/kg/min for 60 minutes): ~4 fold
expected increase in total circulating VSDL ([5]; 200 ng/kg/min for 60 minutes): ~8 fold
